We go through 1 substance from US20260042801A1, “COMPOSITIONS AND METHODS FOR DYE-BOUND CYCLIZED PEPTIDES FOR MEDICAL USE” (The Texas A&M University System, priority 2022, published 2026).

The subject of assay [1] is severe T8 contusion/compression SCI. The experiment in a line: Preclinical SCI model: Novel Object Recognition (NOR). Type of assay: in vivo, mouse. As to conditions: 7 weeks post injury, 24-hr interval.
Method: 8-week-old male mice with a severe T8 contusion/compression SCI were injected IP daily with 5c(i) for 7 weeks (5 and 25 mg/kg/day). 7 weeks post injury, NOR was conducted. 10A) The total number of independent visits to novel object. 10B) Latency to visit novel object. 10C) The ratio of time spent with objects (novel/familiar ratio). […] N=6-8. Graphs show mean and SEM. # (p<0.1) * (p<0.05) ** (p<0.01) *** (p<0.001) **** (p<0.0001). Student's T-test.
Male mice at 8 weeks of age underwent surgery to sustain an SCI. The spinalis thoracis muscle was lacerated to perform a laminectomy at T7-T9 to expose the spinal cord while keeping the dura intact. The mice were then clamped using 2 pairs of Adson forceps before using the Infinite Horizon Impactor at 50 kdyn of force (the contusion) with a 2 second dwell time (the compression) to induce a severe T8 contusion and compression. Self-degrading Catgut sutures were utilized for the closure of the spinalis thoracis muscle before the skin was glued shut with 3M VETBOND™ (n-butyl cyanoacrylate adhesive veterinary tissue adhesive) Tissue Adhesive. All procedures and instruments used for surgery were sterilized prior to surgery to prevent infections. After surgery, mice recovered in a warmed cage and then moved to a cage set at room temperature provided with food and water ad libitum. All surgeries were performed in the morning (8 am-12 pm) to limit potential circadian clock impact. Behavioral assays were performed at the same time in the morning for all the cohorts for the same reason. For the administration of pharmaceutical agents, the vehicle was 0.6 mL/kg of 100% dimethyl sulfoxide (DMSO). 5c(i) (at 5 and 25 mg/kg/day) diluted in vehicle or vehicle alone was administered once daily through intraperitoneal (IP) injections at a volume of 0.6 mL/kg/day. […]
7 weeks after SCI, all post injury cognitive testing was conducted. Novel Object Recognition (NOR): Mice were placed in the empty open field white box for 5 min and recorded. […] Behavioral patterns with respect to the novel and familiar objects was recorded and analyzed. […]
Assay [2] deals with primary adult cortical astrocytes. The experiment in a line: Astrocyte scratch assay (injury model). Type of assay: cell-based, mouse. The conditions noted are these: astrocytes from 6-month-old female mice, 48 hours after scratching. As to the method:
FIGS. 5A-5C: 5c(i) reduces injury size. Primary adult cortical astrocytes from 6-month-old female mice were scratched to form the injury model and immediately after were incubated with 5c(i) for 48 hours (5A). Graph represents mean t SEM. Images represent the 5B) Vehicle and 5C) 5000 nM 5c(i) treated groups stained with Phalloidin. Linear regression was conducted to determine statistical significance. N=10. Scale bar=500 μm.
For neuronal cultures, the neuron enriched fraction was added onto plastic bottom (Greiner-Bio, 781091) plates and incubated inside a 5% C02 incubator at 37° C. for 2 days. Pharmaceutical agents were added at the time of cell plating. For astrocyte cultures, the glia fraction was added onto plastic bottom (Greiner-Bio, 781091) plates and incubated inside a 5% C02 incubator at 37° C. for 5 days for 100% confluency to be reached. Then, the astrocytes were scratched to form the scratch assay model and the pharmaceutical agents were added at the time of scratching. 10,000 cells were plated per well with 0.056 cm^2 growth area for both the neuronal and glia cultures.
Cell cultures were fixed with 4% paraformaldehyde (PFA, 15 min) after the completion of the respective in vitro experiment. […]

On to “C-DIRG-C BODIPY® (fluorescent dye) [5c(i)]”, for which, in assay [1], the “latency to visit novel object” value was “reduced latency to visit”, the “preference for the novel object” value was “increased preference” and the “visits to novel object” value is given as “more visits”. Moreover, the artificial wound closure result in assay [2] was “closing at an expedited rate”.
